Laboratory results published in PMC11078216, “Discovery of potent and selective activity-based probes (ABPs) for the deubiquitinating enzyme USP30” (RSC Chemical Biology, 2024).
Values belong to the molecule of their own block, whether it stands above or below them.

Biological target: T1, ALDH1A2 (Homo sapiens, UniProt O94788)
T1 construct: endogenous in cells; host or cells: HEK293T
T1 sequence (O94788 1-518): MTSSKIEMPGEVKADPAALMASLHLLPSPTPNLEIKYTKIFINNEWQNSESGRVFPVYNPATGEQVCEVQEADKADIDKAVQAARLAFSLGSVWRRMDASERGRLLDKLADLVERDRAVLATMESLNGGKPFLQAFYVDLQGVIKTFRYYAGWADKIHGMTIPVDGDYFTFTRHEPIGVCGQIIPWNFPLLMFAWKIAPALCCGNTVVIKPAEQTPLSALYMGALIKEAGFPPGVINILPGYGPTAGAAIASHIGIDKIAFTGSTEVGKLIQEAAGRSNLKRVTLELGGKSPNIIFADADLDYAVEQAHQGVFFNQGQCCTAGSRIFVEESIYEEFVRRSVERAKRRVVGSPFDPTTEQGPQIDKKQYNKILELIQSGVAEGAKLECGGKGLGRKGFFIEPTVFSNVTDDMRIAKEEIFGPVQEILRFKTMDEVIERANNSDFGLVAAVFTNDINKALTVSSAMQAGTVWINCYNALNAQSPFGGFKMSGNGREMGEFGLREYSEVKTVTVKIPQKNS
Test: ABPP chemical proteomics (LC-MS/MS) in HEK293T cells
Format: cell-based
Protocol: To explore the selectivity of IMP-2587 and IMP-2586 across the whole proteome, we performed quantitative activity-based protein profiling (ABPP) in HEK293T cells following treatment with IMP-2587 or IMP-2586 (Fig. 3a). After ABP incubation, cells were lysed, and probe-labelled proteins were ligated to biotinylated capture reagents.[27] […] USP30 was outcompeted by corresponding parent inhibitors for each ABP (Fig. 5b and d and Tables S3 and S5, ESI ^†), confirming the high potency and rapid engagement of IMP-2587 and IMP-2586 in cells. […] DESI1 and DESI2 are small ubiquitin-related modifier (SUMO) proteases,[3,29–32] and IMP-2587 and IMP-2586 may offer a starting point for future development of DESI ABPs. […]
d) Live cell probe incubation, lysate click chemistry and precipitation 6-well HEK293T cells were incubated with media containing compounds ABP 2 and ABP 4 at indicated concentrations for 1 h at 37 °C. The cells were washed with PBS and lysed with lysis buffer (50 μL (1% (v/v) Triton X-100, 0.1% (w/v) sodium dodecyl sulfate (SDS), EDTA-free complete protease inhibitor cocktail (1×, Roche) in PBS on ice for 10 min. The lysates were scraped and transferred to corresponding Lo-Bind Eppendorfs. Each lysate was sonicated for 1 minute, and the samples centrifuges at 5,000 x g at 4 °C for 5 minutes to pellet insoluble cellular debris. The supernatant was collected, and protein concentration was determined using the DC Protein Assay (Bio-Rad) as per manufacturer’s instructions, and normalised to lowest concentrated sample (e.g. 1 mg/mL, using lysis buffer). The following “click mixture” was prepared separately, preparing 6 μL for every 100 μL of […]
Capture reagent (AzRB/AzT for ABP 2, YnT/YnB for ABP 4 10 mM in DMSO, 1 vol; final concentration […]
CuSO4 (50 mM in water, 2 vol; final concentration in reaction 1 mM)
TCEP (50 mM in water, 2 vol; final concentration in reaction 1 mM)
TBTA (10 mM in DMSO, 1 vol; final concentration in reaction 100 µM)
The click mixture was vortexed and incubated at room temperature for 2 min before 6 μL of the mixture was added to every 100 μL of lysate. The reaction mixtures were shaken at room temperature for 1 h before being quenched with EDTA (500 mM in H2O) to a final concentration of 10 mM.
Proteins were precipitated by adding H2O (1 vol), MeOH (2 vol) and CHCl3 (0.5 vol), vortexing briefly then centrifuging at 17,000 × g for 5 min. The top H2O/MeOH layer was discarded and the middle layer of protein pellet and lower CHCl3 layer retained. The suspension was washed with MeOH (300 μL), and sonicated to break up the pellet. The proteins were pelleted by centrifugation at 10,000–17000 × g for 5–10 min or until a compact pellet was formed. The protein pellet was washed once more with MeOH (1 mL). The pellet was resuspended by sonicating and completely dissolving in 1% (w/v) SDS in PBS (to 5 mg/mL protein) before being made up to 1 mg/mL protein with PBS.
The lysate samples (10-20 μg) were mixed with 4× Laemmli sample loading buffer (250 mM Tris -HCl pH 6.8, 30% (v/v) glycerol, 10% (w/v) SDS, 0.05% (w/v) bromophenol blue) supplemented with 20% v/v β-mercaptoethanol (BME) and boiled for 10 min at 95 °C. The resulting protein samples were separated according to the protocol in section 3.2.c. Gel were imaged on a Typhoon imager (GE Healthcare; λEx 532 nm, λEm 575 nm for TAMRA. For protein loading quantification, gels were stained with Coomassie blue staining solution overnight, rinsed with water and imaged on an ImageQuant™ LAS 4000 imager (GE Healthcare). f) Neutravidin biotin enrichment (Affinity pull-down)
Click chemistry and precipitation steps were carried out as described in section 3.2.d, on at least 400ug of protein per sample. The pellet was resuspended by sonicating and completely dissolving in 1% (w/v) SDS in HEPES 50 mM pH 8.0, before being made up to 1 mg/mL protein with HEPES 50 mM pH 8.0 to […]
achieve a final concentration of 0.2% SDS. 20uL of each samples was collected as TL (Total lysate) […]
samples. […]

SMILES: C#Cc1cccc(-c2cc(NC(=O)CC3CCN(C#N)C3)on2)c1 (stereo not shown) [IMP-2587]
Difference (log2 fold change of enrichment) (IMP-2587 labelling vs DMSO, 30 nM, 10 min, HEK293T (Table S2, Fig.5a)): 3.97

Difference (log2 fold change of enrichment) (compound 1 out-competition with IMP-2587 labelling, HEK293T (Table S3, Fig.5b)): -3.93
SMILES: N#CN1CC[C@H](CC(=O)Nc2cc(-c3cccc(Cl)c3)no2)C1 [compound 1, reference compound]

SMILES: N#CN1CC[C@@H](NC(=O)c2cc(-c3ccccc3Oc3ccc(N=[N+]=[N-])cc3)n[nH]2)C1 [IMP-2586]
Difference (log2 fold change of enrichment) (IMP-2586 labelling vs DMSO, 30 nM, 10 min, HEK293T (Table S4, Fig.5c)): 3.54

Difference (log2 fold change of enrichment) (compound 3 out-competition with IMP-2586 labelling, HEK293T (Table S5, Fig.5d)): -2.44
SMILES: N#CN1CC[C@@H](NC(=O)c2cc(-c3ccccc3Oc3ccccc3)n[nH]2)C1 [compound 3, reference compound]
